How the values were obtained:
Experiment in all cases: post-emergence herbicidal activity, greenhouse
Type in all cases: in vivo
Barnyardgrass = test system: Barnyardgrass
Procedure, shortened: (§1)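 Injury versus control pans was recorded at about 2 and 4 weeks post-treatment. Treatment was post-emergence: an atomizer spray holding roughly 0.4% by weight emulsifier and enough candidate chemical for the tabulated rates, applied to two-to-three-week-old plants raised in top-soil pans.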

Johnsongrass = settings: Table II
Procedure, shortened: as §1

Large Crabgrass = settings: Table III
Procedure, shortened: as §1

Morningglory = test system: Morningglory
Procedure, shortened: as §1

Panicum Spp = settings: Table III
Procedure, shortened: as §1

[1] = Table II, 2 WAT, 5.6 kg/h, formulated in anhydrous tetrahydrofuran
[2] = Table II, 2 WAT, 11.2 kg/h, formulated in anhydrous tetrahydrofuran
[3] = Table II, 4 WAT, 5.6 kg/h, formulated in anhydrous tetrahydrofuran
[4] = Table II, 4 WAT, 11.2 kg/h, formulated in anhydrous tetrahydrofuran
[5] = Table III, 2 WAT, 1.1 kg/h, formulated in anhydrous tetrahydrofuran
[6] = Table III, 2 WAT, 5.6 kg/h, formulated in anhydrous tetrahydrofuran
[7] = Table III, 2 WAT, .28 kg/h, formulated in anhydrous tetrahydrofuran
[8] = Table III, 4 WAT, 1.1 kg/h, formulated in anhydrous tetrahydrofuran
[9] = Table III, 4 WAT, 5.6 kg/h, formulated in anhydrous tetrahydrofuran
[10] = Table III, 4 WAT, .28 kg/h, formulated in anhydrous tetrahydrofuran
[11] = 2 WAT, 5.6 kg/h, formulated in anhydrous tetrahydrofuran
[12] = 4 WAT, 5.6 kg/h, formulated in anhydrous tetrahydrofuran
[13] = 2 WAT, 1.1 kg/h, formulated in anhydrous tetrahydrofuran
[14] = 2 WAT, .28 kg/h, formulated in anhydrous tetrahydrofuran
[15] = 4 WAT, 1.1 kg/h, formulated in anhydrous tetrahydrofuran

CCOC(=O)CNCP(=O)(O)O[Si](c1ccccc1)(c1ccccc1)C(C)(C)C [Ex. 7, Glycine, N--((([(1,1-Dimethylethyl)Diphenylsilyl]Oxy)Hydroxyphosphinyl)Methyl)-,Ethyl Ester]
Plant Response Index (K) (Barnyardgrass; Table II, 2 WAT, 5.6 kg/h): 3 (75-99% inhibition)
Plant Response Index (K) (Barnyardgrass; [1]): 1 (25-49% inhibition)
Plant Response Index (K) (Barnyardgrass; Table II, 2 WAT, 11.2 kg/h): 3 (75-99% inhibition)
Plant Response Index (K) (Barnyardgrass; [2]): 2 (50-74% inhibition)
Plant Response Index (K) (Barnyardgrass; Table II, 4 WAT, 5.6 kg/h): 3 (75-99% inhibition)
Plant Response Index (K) (Barnyardgrass; [3]): 2 (50-74% inhibition)
Plant Response Index (K) (Barnyardgrass; Table II, 4 WAT, 11.2 kg/h): 4 (100% inhibition)
Plant Response Index (K) (Barnyardgrass; [4]): 3 (75-99% inhibition)
Plant Response Index (K) (Barnyardgrass; Table III, 2 WAT, 1.1 kg/h): 3 (75-99% inhibition)
Plant Response Index (K) (Barnyardgrass; [5]): 2 (50-74% inhibition)
Plant Response Index (K) (Barnyardgrass; Table III, 2 WAT, 5.6 kg/h): 3 (75-99% inhibition)
Plant Response Index (K) (Barnyardgrass; [6]): 3 (75-99% inhibition)
Plant Response Index (K) (Barnyardgrass; Table III, 2 WAT, .28 kg/h): 2 (50-74% inhibition)
Plant Response Index (K) (Barnyardgrass; [7]): 1 (25-49% inhibition)
Plant Response Index (K) (Barnyardgrass; Table III, 4 WAT, 1.1 kg/h): 3 (75-99% inhibition)
Plant Response Index (K) (Barnyardgrass; [8]): 2 (50-74% inhibition)
Plant Response Index (K) (Barnyardgrass; Table III, 4 WAT, 5.6 kg/h): 3 (75-99% inhibition)
Plant Response Index (K) (Barnyardgrass; [9]): 3 (75-99% inhibition)
Plant Response Index (K) (Barnyardgrass; Table III, 4 WAT, .28 kg/h): 2 (50-74% inhibition)
Plant Response Index (K) (Barnyardgrass; [10]): 1 (25-49% inhibition)
Plant Response Index (I) (Johnsongrass; 2 WAT, 5.6 kg/h): 3 (75-99% inhibition)
Plant Response Index (I) (Johnsongrass; [11]): 0 (0-24% inhibition)
Plant Response Index (I) (Johnsongrass; 2 WAT, 11.2 kg/h): 4 (100% inhibition)
Plant Response Index (I) (Johnsongrass; 2 WAT, 11.2 kg/h, formulated in anhydrous tetrahydrofuran): 0 (0-24% inhibition)
Plant Response Index (I) (Johnsongrass; 4 WAT, 5.6 kg/h): 4 (100% inhibition)
Plant Response Index (I) (Johnsongrass; [12]): 2 (50-74% inhibition)
Plant Response Index (I) (Johnsongrass; 4 WAT, 11.2 kg/h): 4 (100% inhibition)
Plant Response Index (I) (Johnsongrass; 4 WAT, 11.2 kg/h, formulated in anhydrous tetrahydrofuran): 1 (25-49% inhibition)
Plant Response Index (T) (Large Crabgrass; 2 WAT, 1.1 kg/h): 4 (100% inhibition)
Plant Response Index (T) (Large Crabgrass; [13]): 3 (75-99% inhibition)
Plant Response Index (T) (Large Crabgrass; [11]): 3 (75-99% inhibition)
Plant Response Index (T) (Large Crabgrass; [14]): 2 (50-74% inhibition)
Plant Response Index (T) (Large Crabgrass; 4 WAT, 1.1 kg/h): 4 (100% inhibition)
Plant Response Index (T) (Large Crabgrass; [15]): 3 (75-99% inhibition)
Plant Response Index (T) (Large Crabgrass; [12]): 3 (75-99% inhibition)
Plant Response Index (T) (Large Crabgrass; 4 WAT, .28 kg/h, formulated in anhydrous tetrahydrofuran): 2 (50-74% inhibition)
Plant Response Index (D) (Morningglory; Table II, 2 WAT, 5.6 kg/h): 2 (50-74% inhibition)
Plant Response Index (D) (Morningglory; [1]): 2 (50-74% inhibition)
Plant Response Index (D) (Morningglory; Table II, 2 WAT, 11.2 kg/h): 2 (50-74% inhibition)
Plant Response Index (D) (Morningglory; [2]): 1 (25-49% inhibition)
Plant Response Index (D) (Morningglory; Table II, 4 WAT, 5.6 kg/h): 2 (50-74% inhibition)
Plant Response Index (D) (Morningglory; [3]): 2 (50-74% inhibition)
Plant Response Index (D) (Morningglory; Table II, 4 WAT, 11.2 kg/h): 2 (50-74% inhibition)
Plant Response Index (D) (Morningglory; [4]): 2 (50-74% inhibition)
Plant Response Index (D) (Morningglory; Table III, 2 WAT, 1.1 kg/h): 2 (50-74% inhibition)
Plant Response Index (D) (Morningglory; [5]): 2 (50-74% inhibition)
Plant Response Index (D) (Morningglory; Table III, 2 WAT, 5.6 kg/h): 2 (50-74% inhibition)
Plant Response Index (D) (Morningglory; [6]): 2 (50-74% inhibition)
Plant Response Index (D) (Morningglory; Table III, 2 WAT, .28 kg/h): 2 (50-74% inhibition)
Plant Response Index (D) (Morningglory; [7]): 1 (25-49% inhibition)
Plant Response Index (D) (Morningglory; Table III, 4 WAT, 1.1 kg/h): 2 (50-74% inhibition)
Plant Response Index (D) (Morningglory; [8]): 2 (50-74% inhibition)
Plant Response Index (D) (Morningglory; Table III, 4 WAT, 5.6 kg/h): 3 (75-99% inhibition)
Plant Response Index (D) (Morningglory; [9]): 3 (75-99% inhibition)
Plant Response Index (D) (Morningglory; Table III, 4 WAT, .28 kg/h): 1 (25-49% inhibition)
Plant Response Index (D) (Morningglory; [10]): 1 (25-49% inhibition)
Plant Response Index (S) (Panicum Spp; 2 WAT, 1.1 kg/h): 4 (100% inhibition)
Plant Response Index (S) (Panicum Spp; [13]): 2 (50-74% inhibition)
Plant Response Index (S) (Panicum Spp; 2 WAT, 5.6 kg/h): 3 (75-99% inhibition)
Plant Response Index (S) (Panicum Spp; [11]): 4 (100% inhibition)
Plant Response Index (S) (Panicum Spp; 2 WAT, .28 kg/h): 3 (75-99% inhibition)
Plant Response Index (S) (Panicum Spp; [14]): 1 (25-49% inhibition)
Plant Response Index (S) (Panicum Spp; 4 WAT, 1.1 kg/h): 4 (100% inhibition)
Plant Response Index (S) (Panicum Spp; [15]): 2 (50-74% inhibition)
Plant Response Index (S) (Panicum Spp; 4 WAT, 5.6 kg/h): 4 (100% inhibition)
Plant Response Index (S) (Panicum Spp; [12]): 4 (100% inhibition)
